# Reference: patent US12495798B2, “Nicotinamide compound and herbicidal composition comprising compound” (KOREA RESEARCH INSTITUTE OF CHEMICAL TECHNOLOGY, priority 2019, dated 2025)
# Tests used:
# Format in all cases: in vivo
# [1] = system: cocklebur; test: Herbicidal activity test against upland field weeds (foliar treatment test); parameters: key to Foliar treatment herbicidal activity, Cocklebur: 0 (no control); 100 (complete control); details: 50 g ai/ha, scale 0-100; for pest or weed control at 50 g/ha: Xanthium strumarium
# How it was run: (§1)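 Greenhouse-grown plants (30±5 °C, 14/10 h light/dark) foliar hand-sprayed with compound in 50% acetone, 0.1% Tween-20 at 50 or 75 g a.i./ha. Control visually scored 0 (none) to 100 (complete) versus untreated after 14 days, or 21 days if needed.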
# [2] = system: rice; test: Phytotoxicity test for upland field crops (foliar treatment test); parameters: key: 0 (no harm); 9 (complete withered)
# How it was run: (§2)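 Phytotoxicity was rated on a 0 (no harm) to 9 (complete withered) scale relative to untreated plants, 7 and 14 days after spraying. Crops had been grown in fertilized horticultural soil under greenhouse conditions before foliar application at 19˜300 g a.i./ha.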
# [3] = system: wheat; test: as above; parameters: key: 0 (no harm); 9 (complete withered)
# How it was run: as §2
# [4] = system: cotton; test: as above; parameters: key: 0 (no harm); 9 (complete withered)
# How it was run: as §2
# [5] = system: soybean; test: as above; parameters: key: 0 (no harm); 9 (complete withered)
# How it was run: as §2
# [6] = system: corn; test: as above; parameters: key: 0 (no harm); 9 (complete withered)
# How it was run: as §2
# [7] = system: black nightshade; test: Herbicidal activity test against upland field weeds (foliar treatment test); parameters: key to Foliar treatment herbicidal activity, black nightshade: 0 (no control); 100 (complete control); details: 50 g ai/ha, scale 0-100
# How it was run: as §1
# [8] = system: quack grass; test: Herbicidal activity test against upland field weeds (soil treatment test); parameters: key to Soil treatment herbicidal activity, quack grass: 0 (no control); 100 (complete control); details: 50 g ai/ha, scale 0 (no control) to 100 (complete control)
# How it was run: (§3)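 Pre-emergence soil surface spray, day after sowing, into sandy loam pots with fertilizer; compounds at 50 or 75 g a.i./ha in 50% acetone, 0.1% Tween-20. Greenhouse at 30±5 °C, 14/10 h light/dark; visual control rated 0–100 against untreated after 14 days (21 if needed).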
# [9] = system: indian jointvetch; test: Herbicidal activity test against upland field weeds (foliar treatment test); details: 50 g ai/ha, scale 0-100
# How it was run: as §1
# [10] = system: barnyard grass; test: Herbicidal activity test against upland field weeds (soil treatment test); parameters: key to Soil treatment herbicidal activity, barnyard grass: 0 (no control); 100 (complete control); details: 50 g ai/ha, scale 0 (no control) to 100 (complete control)
# How it was run: as §3
# [11] = system: velvetleaf; test: Herbicidal activity test against upland field weeds (foliar treatment test); parameters: key to Foliar treatment herbicidal activity, velvet leaf: 0 (no control); 100 (complete control); details: 50 g ai/ha; for pest or weed control at 50 g/ha: Abutilon theophrasti, scale 0-100, read-out: Foliar treatment herbicidal activity, velvet leaf; for Foliar treatment herbicidal activity, velvet leaf: scale 0-100
# How it was run: as §1
# [12] = system: velvetleaf; test: Herbicidal activity test against upland field weeds (soil treatment test); parameters: key to Soil treatment herbicidal activity, velvet leaf: 0 (no control); 100 (complete control); details: 50 g ai/ha, scale 0 (no control) to 100 (complete control)
# How it was run: as §3
# [13] = system: bindweed; test: as above; parameters: key to Soil treatment herbicidal activity, Bindweed: 0 (no control); 100 (complete control); details: 50 g ai/ha, scale 0 (no control) to 100 (complete control)
# How it was run: as §3
# [14] = 50 g ai/ha, Rice (7 days after treatment)
# [15] = 50 g ai/ha, Rice (14 days after treatment)
# [16] = 100 g ai/ha, Rice (7 days after treatment)
# [17] = 100 g ai/ha, Rice (14 days after treatment)
# [18] = 50 g ai/ha, Wheat (7 days after treatment)
# [19] = 50 g ai/ha, Wheat (14 days after treatment)
# [20] = 100 g ai/ha, Wheat (7 days after treatment)
# [21] = 100 g ai/ha, Wheat (14 days after treatment)
# [22] = 50 g ai/ha, Cotton (7 days after treatment)
# [23] = 50 g ai/ha, Cotton (14 days after treatment)
# [24] = 100 g ai/ha, Cotton (7 days after treatment)
# [25] = 100 g ai/ha, Cotton (14 days after treatment)
# [26] = 50 g ai/ha, Soybean (7 days after treatment)
# [27] = 50 g ai/ha, Soybean (14 days after treatment)
# [28] = 100 g ai/ha, Soybean (7 days after treatment)
# [29] = 100 g ai/ha, Soybean (14 days after treatment)
# [30] = 50 g ai/ha, Corn (7 days after treatment)
# [31] = 50 g ai/ha, Corn (14 days after treatment)
# [32] = 100 g ai/ha, Corn (7 days after treatment)
# [33] = 100 g ai/ha, Corn (14 days after treatment)
Compound,"Foliar treatment herbicidal activity, Cocklebur [1]","Foliar treatment phytotoxicity, Rice [2, 14]","Foliar treatment phytotoxicity, Rice [2, 15]","Foliar treatment phytotoxicity, Rice [2, 16]","Foliar treatment phytotoxicity, Rice [2, 17]","Foliar treatment phytotoxicity, Wheat [3, 18]","Foliar treatment phytotoxicity, Wheat [3, 19]","Foliar treatment phytotoxicity, Wheat [3, 20]","Foliar treatment phytotoxicity, Wheat [3, 21]","Foliar treatment phytotoxicity, Corn [6, 30]","Foliar treatment phytotoxicity, Corn [6, 31]","Foliar treatment phytotoxicity, Corn [6, 32]","Foliar treatment phytotoxicity, Corn [6, 33]","Foliar treatment herbicidal activity, black nightshade [7]","Soil treatment herbicidal activity, quack grass [8]",pest or weed control at 50 g/ha [9] [%],pest or weed control at 50 g/ha [11] [%],"Soil treatment herbicidal activity, velvet leaf [12]",pest or weed control at 50 g/ha [1] [%],"Soil treatment herbicidal activity, barnyard grass [10]",also measured
"Cn1nnc(CSCc2nc(C(F)(F)F)ccc2C(=O)Nc2nnnn2C)n1 [Compound No. 2-102, N-(1-methyl-1H-tetrazol-5-yl)-2-((((2-methyl-2H-tetrazol-5-yl)methyl)thio)methyl)-6-(trifluoromethyl)nicotinamide]",100,3,3,4,4,0,0,0,1,0,0,0,0,100,0,98,80,100,,,"Foliar treatment phytotoxicity, Cotton [4, 22]: 0; Foliar treatment phytotoxicity, Cotton [4, 23]: 0; Foliar treatment phytotoxicity, Cotton [4, 24]: 0; Foliar treatment phytotoxicity, Cotton [4, 25]: 0; Foliar treatment phytotoxicity, Soybean [5, 26]: 0; Foliar treatment phytotoxicity, Soybean [5, 27]: 0; Foliar treatment phytotoxicity, Soybean [5, 28]: 0; Foliar treatment phytotoxicity, Soybean [5, 29]: 0; pest or weed control at 50 g/ha ([10]; Echinochloa crus-galli): 98%"
"Cn1nnnc1COc1nc(C(F)(F)F)ccc1C(=S)Nc1nnnn1C [Compound No. 1-43, N-(1-methyl-1H-tetrazol-5-yl)-2-((1-methyl-1H-tetrazol-5-yl)methoxy)-6-(trifluoromethyl)pyridin-3-carbothioamide]",,,,,,,,,,,,,,100,0,30,90,,90,0,"Soil treatment herbicidal activity, Bindweed [13]: 0; pest or weed control at 50 g/ha ([12]; Abutilon theophrasti, read-out: Soil treatment herbicidal activity, velvet leaf): 90%"
"Cn1nnc(CS(=O)(=O)Cc2nc(C(F)(F)F)ccc2C(=O)Nc2nnnn2C)n1 [Compound No. 2-105, N-(1-methyl-1H-tetrazol-5-yl)-2-((((2-methyl-2H-tetrazol-5-yl)methyl)sulfonyl)methyl)-6-(trifluoromethyl)nicotinamide]",,,,,,3,4,4,4,0,0,0,0,100,0,95,90,100,98,0,pest or weed control at 50 g/ha [13]: 30%
Cn1cnc(COCc2nc(C(F)F)ccc2C(=O)Nc2nnnn2C)n1 [Compound No. 2-85],97,7,7,8,1,0,0,2,0,0,0,0,0,100,,,,20,,0,"Foliar treatment phytotoxicity, Cotton [4, 22]: 7; Foliar treatment phytotoxicity, Cotton [4, 23]: 7; Foliar treatment phytotoxicity, Cotton [4, 24]: 8; Foliar treatment phytotoxicity, Cotton [4, 25]: 9; Foliar treatment phytotoxicity, Soybean [5, 26]: 4; Foliar treatment phytotoxicity, Soybean [5, 27]: 6; Foliar treatment phytotoxicity, Soybean [5, 28]: 6; Foliar treatment phytotoxicity, Soybean [5, 29]: 7; Soil treatment herbicidal activity, Bindweed [13]: 35; Foliar treatment herbicidal activity, Indian jointvetch [9]: 97; Foliar treatment herbicidal activity, velvet leaf [11]: 100"
"CCOC(=O)OC(C)n1nnn(C)c1=NC(=O)c1ccc(C(F)(F)F)nc1CSCc1nnn(C)n1 (stereo not drawn) [Compound No. 4-10, ethyl (1-(4-methyl-5-((2-((((2-methyl-2H-tetrazol-5-yl)methyl)thio)methyl)-6-(trifluoromethyl)nicotinoyl)imino)-4,5-dihydro-1H-tetrazol-1-yl)ethyl)carbonate]",100,,,,,0,0,0,0,2,1,3,1,100,0,,,100,,100,"Soil treatment herbicidal activity, Bindweed [13]: 40; Foliar treatment herbicidal activity, Indian jointvetch [9]: 98; Foliar treatment herbicidal activity, velvet leaf [11]: 100"
"COc1nc(COCc2nc(C(F)(F)F)ccc2C(=O)Nc2nnnn2C)nn1C [Compound No. 2-129, 2-(((5-methoxy-1-methyl-1H-1,2,4-triazol-3-yl)methoxy)methyl)-N-(1-methyl-1H-tetrazol-5-yl)-6-(trifluoromethyl)nicotinamide]",,,,,,1,1,2,2,0,0,0,0,100,0,60,70,,70,0,
"Cn1nc(COCc2nc(C(F)(F)F)ccc2C(=O)Nc2nnnn2C)nc1Cl [Compound No. 2-135, 2-(((5-chloro-1-methyl-1H-1,2,4-triazol-3-yl)methoxy)methyl)-N-(1-methyl-1H-tetrazol-5-yl)-6-(trifluoromethyl)nicotinamide]",,3,6,4,6,0,0,0,0,0,0,0,0,,0,95,40,0,95,0,"Foliar treatment phytotoxicity, Cotton [4, 22]: 3; Foliar treatment phytotoxicity, Cotton [4, 23]: 7; Foliar treatment phytotoxicity, Cotton [4, 24]: 3; Foliar treatment phytotoxicity, Cotton [4, 25]: 7; Foliar treatment phytotoxicity, Soybean [5, 26]: 4; Foliar treatment phytotoxicity, Soybean [5, 27]: 6; Foliar treatment phytotoxicity, Soybean [5, 28]: 4; Foliar treatment phytotoxicity, Soybean [5, 29]: 7; pest or weed control at 50 g/ha ([7]; Solanum nigrum): 98%"
